pIC50: −log10 of the molar value.
Tests used:
[1] = target: T1, Rabbit muscle glycogen phosphorylase a (Oryctolagus cuniculus, UniProt P00489); assay: Glycogen phosphorylase assay in vitro (reverse direction, malachite green phosphate detection); type: biochemical; settings: 50 mM Hepes pH 7.2, 7.5 mM glucose, 0.5 mM glucose-1-phosphate, 1 mg/mL glycogen, 30° C. for 30 min
T1 construct: purchased Sigma P1261; host or cells: rabbit muscle
T1 sequence (P00489 2-843 limits assumed): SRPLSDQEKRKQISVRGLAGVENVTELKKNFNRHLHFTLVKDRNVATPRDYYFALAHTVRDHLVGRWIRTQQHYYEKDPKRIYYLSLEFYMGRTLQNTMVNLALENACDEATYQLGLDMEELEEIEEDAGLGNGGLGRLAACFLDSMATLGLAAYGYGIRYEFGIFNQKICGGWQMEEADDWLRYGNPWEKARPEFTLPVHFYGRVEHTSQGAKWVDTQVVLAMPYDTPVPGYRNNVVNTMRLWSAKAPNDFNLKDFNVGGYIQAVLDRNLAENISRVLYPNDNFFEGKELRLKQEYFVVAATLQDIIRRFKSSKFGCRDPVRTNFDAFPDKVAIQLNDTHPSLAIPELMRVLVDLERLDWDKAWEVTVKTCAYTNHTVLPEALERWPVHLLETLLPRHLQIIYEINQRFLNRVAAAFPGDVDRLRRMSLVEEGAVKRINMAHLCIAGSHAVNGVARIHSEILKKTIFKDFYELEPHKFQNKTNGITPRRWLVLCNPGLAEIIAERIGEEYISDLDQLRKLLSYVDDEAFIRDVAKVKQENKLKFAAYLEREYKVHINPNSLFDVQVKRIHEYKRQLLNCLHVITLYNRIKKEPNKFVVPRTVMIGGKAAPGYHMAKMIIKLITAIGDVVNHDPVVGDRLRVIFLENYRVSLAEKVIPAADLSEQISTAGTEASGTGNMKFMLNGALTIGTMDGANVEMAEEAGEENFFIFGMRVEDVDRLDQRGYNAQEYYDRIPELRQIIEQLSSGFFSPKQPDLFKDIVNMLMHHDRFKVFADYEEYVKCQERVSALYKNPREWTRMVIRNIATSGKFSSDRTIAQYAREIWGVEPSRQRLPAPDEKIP
Excerpt: α-D-Glucose-1-phosphate (disodium salt), Glycogen, D-Glucose, Malachite Green Hydrochloride, Ammonium Molybdate tetrahydrate, BSA, HEPES and rabbit muscle phosphorylase a (P1261) were purchased from Sigma. All other reagents were analytical grade.
An assay for glycogen phosphorylase activity in the reverse direction was developed based on the method described by Engers et al., Can. J. Biochem., 1970, 48, 746-754]. Rabbit muscle glycogen phosphorylase a (Sigma) was reconstituted at a stock concentration of 100 μg/mL in 25 mM Tris/HCl. […] in a 96-well plate in a final volume of 100 μL containing 50 mM Hepes pH 7.2, 7.5 mM glucose, 0.5 mM glucose-1-phosphate and 1 mg/mL glycogen. After incubation at 30° C. for 30 min, the inorganic phosphate released from glucose-1-phosphate was measured by the addition of 150 μL of malachite green/molybdate solution prepared as follows: 5 mL of 4.2% ammonium molybdate in 4N HCl, 15 mL of 0.045% malachite green, 50 μL of Tween 20. Following a 30 min incubation at room temperature, the absorbance was measured at 620 nm. For IC50 determination, 10 μL of a serial dilution of compound (100 μM to 0.004 μM) in DMSO was added to each reaction in duplicate with the equivalent concentration of DMSO added to the control uninhibited reaction. Dose response curves were then obtained by plotting % inhibition versus log10 compound concentration. […]

[2] = thermogravimetric method, nitrogen flow, 5° C./min heating rate
Experimental: Thermogravimetric analysis was performed as follows: A sample of the material (ca. 4-5 mg) was heated in a platinum vessel using slow inert gas (nitrogen) flow with 5° C./min heating rate using Derivatograph C instrument.
Thermal stability data on the product of Example 1 were obtained by the thermogravimetric method described above.

Compound: O=C(N[C@@H](Cc1ccc(F)cc1)C(=O)N1CCC(O)CC1)c1cc2cc(Cl)ncc2[nH]1 [Formula (I), 5-chloro-1H-pyrrolo[2,3-c]pyridine-2-carboxylic acid [1-(S)-(4-fluorobenzyl)-2-(4-hydroxypiperidin-1-yl)-2-oxoethyl]amide]
- pIC50 [1]: > 3.00

Compound: Cl.O=C(N[C@@H](Cc1ccc(F)cc1)C(=O)N1CCC(O)CC1)c1cc2cc(Cl)ncc2[nH]1 [Example 1]
- Thermal stability (temperature below which the substance appeared to be stable) [2]: below 190 °C

— patent US8664397B2, “Pyrrolopyridine-2-carboxylic acid amide derivative useful as inhibitor of glycogen phosphorylase” (Prosidion Limited, priority 2004, dated 2014)
